One assay has as its target rat TAAR1 (Rattus norvegicus (Rat), UniProt Q923Y9). Briefly: Radioligand binding assay on rat TAAR1. The conditions noted are these: for Ki: rat TAAR1, HEK-293 membranes, second value of the mouse/rat pair. The protocol:
(§1) Construction of TAAR Expression Plasmids and Stably Transfected Cell Lines
(§2) For the construction of expression plasmids the coding sequences of human, rat and mouse TAAR 1 were amplified from genomic DNA essentially as described by Lindemann et al..
(§3) The Expand High Fidelity PCR System (Roche Diagnostics) was used with 1.5 mM Mg^2+ and purified PCR products were cloned into pCR2.1-TOPO cloning vector (Invitrogen) following the instructions of the manufacturer. PCR products were subcloned into the pIRESneo2 vector (BD Clontech, Palo Alto, Calif.), and expression vectors were sequence verified before introduction in cell lines.
(§4) HEK293 cells (ATCC # CRL-1573) were cultured essentially as described by Lindemann et al. (2005). For the generation of stably transfected cell lines HEK293 cells were transfected with the pIRESneo2 expression plasmids containing the TAAR coding sequences (described above) with Lipofectamine 2000 (Invitrogen) according to the instructions of the manufacturer, and 24 hrs post transfection the culture medium was supplemented with 1 mg/ml G418 (Sigma, Buchs, Switzerland). After a culture period of about 10 d clones were isolated, expanded and tested for responsiveness to trace amines (all compounds purchased from Sigma) with the cAMP Biotrak Enzyme immunoassay (EIA) System (Amersham) following the non-acetylation EIA procedure provided by the manufacturer.
Radioligand Binding Assay on Rat TAAR1
(§5) Membrane Preparation and Radioligand Binding.
(§6) HEK-293 cells stably expressing rat TAAR1 were maintained at 37° C. and 5% CO2 in DMEM high glucose medium, containing fetal calf serum (10%, heat inactivated for 30 min at 56° C.), penicillin/streptomycin (1%), and 375 μg/ml geneticin (Gibco). Cells were released from culture flasks using trypsin/EDTA, harvested, washed twice with ice-cold PBS (without Ca^2+ and Mg^2+), pelleted at 1,000 rpm for 5 min at 4° C., frozen and stored at −80° C. Frozen pellets were suspended in 20 ml HEPES-NaOH (20 mM, pH 7.4) containing 10 mM EDTA and homogenized with a Polytron (PT 6000, Kinematica) at 14,000 rpm for 20 s. The homogenate was centrifuged at 48,000×g for 30 min at 4° C. Subsequently, the supernatant was removed and discarded, and the pellet resuspended in 20 ml HEPES-NaOH (20 mM, pH 7.4) containing 0.1 mM EDTA using the Polytron (20 s at 14,000 rpm). This procedure was repeated and the final pellet resuspended in HEPES-NaOH containing 0.1 mM EDTA and homogenized using the Polytron. Typically, aliquots of 2 ml membrane portions were stored at −80° C. With each new membrane batch the dissociation constant (Kd) was determined via a saturation curve. […] Nonspecific binding was defined as the amount of [H]-(S)-4-[(ethyl-phenyl-amino)-methyl]-4,5-dihydro-oxazol-2-ylamine bound in the presence of 10 μM unlabeled ligand. All compounds were tested at a broad range of concentrations (10 μM to 10 μM) in duplicates. […] The 96 deep well plates were incubated for 1 hr at 4° C. Incubations were terminated by rapid filtration through Unifilter-96 plates (Packard Instrument Company) and glass filters GF/C (Perkin Elmer) presoaked for 1 hr in polyethylenimine (0.3%) and washed 3 times with 1 ml of cold binding buffer. After addition of 45 μl of Microscint 40 (PerkinElmer) the Unifilter-96 plate was sealed and after 1 hr the radioactivity counted using a TopCount Microplate Scintillation Counter (Packard Instrument Company).

Another assay concerns the target mouse TAAR1 (Mus musculus (Mouse), UniProt Q923Y8). The assay can be described thus: Radioligand binding assay on mouse TAAR1. Conditions: for Ki: mouse TAAR1, HEK-293 membranes, first value of the mouse/rat pair. The protocol: as §1, §2, §3, §4
Radioligand Binding Assay on Mouse TAAR1
as §5
as §6, with “expressing mouse” for “expressing rat”, “of ^3[H]-(S)-4-[(ethyl-phenyl-amino)-methyl]-4,5-dihydro-oxazol-2-ylamine” for “of [H]-(S)-4-[(ethyl-phenyl-amino)-methyl]-4,5-dihydro-oxazol-2-ylamine”, “(10 pM” for “(10 μM”

Where only a bound is given, the exact number is not on record here.

Experimental findings from patent US9828374B2, “Substituted pyrazino[2,2-a]isoquinoline derivatives” (Hoffmann-La Roche Inc., priority 2014, dated 2017) are described below.

Broadly, the Ki is a measure of affinity in units of concentration, obtained from inhibition or displacement. A word on the Kd: it is the constant that tells how readily two partners part at equilibrium.

Chain of rat TAAR1 (Q923Y9 whole entry): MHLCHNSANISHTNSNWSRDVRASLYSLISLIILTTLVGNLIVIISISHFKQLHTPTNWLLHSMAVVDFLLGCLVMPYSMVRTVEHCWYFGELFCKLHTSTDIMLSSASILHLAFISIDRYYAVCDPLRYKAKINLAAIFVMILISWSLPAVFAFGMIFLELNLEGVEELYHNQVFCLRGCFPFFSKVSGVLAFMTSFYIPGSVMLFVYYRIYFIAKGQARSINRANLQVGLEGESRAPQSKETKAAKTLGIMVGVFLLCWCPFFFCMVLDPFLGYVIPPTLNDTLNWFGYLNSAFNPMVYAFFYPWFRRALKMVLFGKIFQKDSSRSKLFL
Chain of mouse TAAR1 (Q923Y8 whole entry): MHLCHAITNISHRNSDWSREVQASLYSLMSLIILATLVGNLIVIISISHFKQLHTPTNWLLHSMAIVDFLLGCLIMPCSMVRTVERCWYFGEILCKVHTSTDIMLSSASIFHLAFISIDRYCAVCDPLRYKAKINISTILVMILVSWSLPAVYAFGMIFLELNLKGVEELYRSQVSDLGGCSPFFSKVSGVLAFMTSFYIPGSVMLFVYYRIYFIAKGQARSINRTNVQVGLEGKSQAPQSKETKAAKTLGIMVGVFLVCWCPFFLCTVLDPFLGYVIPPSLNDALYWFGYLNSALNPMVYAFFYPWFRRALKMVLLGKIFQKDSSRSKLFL

For the compound `O=C(Nc1ccc2c(c1)CCN1CCNC[C@H]21)c1ccnc(C(F)(F)F)c1` [Example 9, N-[(11bS)-2,3,4,6,7,11b-hexahydro-1H-pyrazino[2,1-a]isoquinolin-9-yl]-2-(trifluoromethyl)pyridine-4-carboxamide], the Ki at rat TAAR1 turned out to be 0.0142 µM; at mouse TAAR1, 0.0144 µM.
The corresponding values for `COc1ccc(NC(=O)Nc2ccc3c(c2)CCN2CCNC[C@@H]32)cc1` [Example 36, (R)-1-(2,3,4,6,7,11b-hexahydro-1H-pyrazino[2,1-a]isoquinolin-9-yl)-3-(4-methoxyphenyl)urea] are 0.023 µM and 0.0101 µM.
On the same counts, the results for `FC(F)(F)c1nccc(Nc2ccc3c(c2)CCN2CCNC[C@@H]32)n1` [Example 5, (11bR)-N-[2-(trifluoromethyl)pyrimidin-4-yl]-2,3,4,6,7,11b-hexahydro-1H-pyrazino[2,1-a]isoquinolin-9-amine] are 0.0151 µM and 0.0354 µM.
Consider `CCN(C[C@H]1COC(N)=N1)c1ccccc1` [^3[H]-(S)-4-[(ethyl-phenyl-amino)-methyl]-4,5-dihydro-oxazol-2-ylamine, reference compound], for which the Kd is about 2.3 nM at rat TAAR1 (rat TAAR1 membranes, saturation curve, usual value, read-out: dissociation constant (Kd) of the radioligand) and about 0.7 nM at mouse TAAR1 (mouse TAAR1 membranes, saturation curve, usual value, read-out: dissociation constant (Kd) of the radioligand).
For the compound `O=C(Nc1ccc2c(c1F)CCN1CCNC[C@@H]21)c1ccnc(C(F)(F)F)c1` [Example 32, N-[(11bR)-8-fluoro-2,3,4,6,7,11b-hexahydro-1H-pyrazino[2,1-a]isoquinolin-9-yl]-2-(trifluoromethyl)pyridine-4-carboxamide], the Ki on rat TAAR1 was 7.63 µM; at mouse TAAR1, 0.444 µM.
With `FC(F)(F)c1cnc(Nc2ccc3c(c2)CCN2CCNC[C@H]32)cn1` [Example 12, (11bS)-N-[5-(trifluoromethyl)pyrazin-2-yl]-2,3,4,6,7,11b-hexahydro-1H-pyrazino[2,1-a]isoquinolin-9-amine], the Ki was 1.98 µM at rat TAAR1 and 0.219 µM on mouse TAAR1.
The corresponding values for `Nc1ccc2c(c1)CCN1CCNC[C@@H]21` [Example 47, (11bR)-2,3,4,6,7,11b-hexahydro-1H-pyrazino[2,1-a]isoquinolin-9-amine] are over 1.5 µM and 1.1 µM.
The corresponding values for `Fc1cccc2c1CCN1CCNC[C@@H]21` [Example 30, (11bR)-8-fluoro-2,3,4,6,7,11b-hexahydro-1H-pyrazino[2,1-a]isoquinoline] are 0.201 µM and 0.176 µM.
On the same counts, the results for `O=C(Nc1ccc(Cl)cc1)c1ccc2c(c1)CCN1CCNC[C@@H]21` [Example 44, (11bR)-N-(4-chlorophenyl)-2,3,4,6,7,11b-hexahydro-1H-pyrazino[2,1-a]isoquinoline-9-carboxamide] are 0.274 µM and 0.0161 µM.
Consider `c1cnc(Nc2ccc3c(c2)CCN2CCNC[C@@H]32)nc1` [Example 22, (11bR)-N-pyrimidin-2-yl-2,3,4,6,7,11b-hexahydro-1H-pyrazino[2,1-a]isoquinolin-9-amine], for which the Ki on rat TAAR1 came to 3.92 µM; on mouse TAAR1 it was 0.537 µM.
For the compound `Cc1cc(Nc2ccc3c(c2)CCN2CCNC[C@@H]32)nc(C)n1` [Example 23, (11bR)-N-(2,6-dimethylpyrimidin-4-yl)-2,3,4,6,7,11b-hexahydro-1H-pyrazino[2,1-a]isoquinolin-9-amine], the Ki on rat TAAR1 stood at 0.457 µM; on mouse TAAR1, 0.165 µM.
For `CC(C)c1cc(C(=O)Nc2ccc3c(c2)CCN2CCNC[C@@H]32)n(C)n1` [Example 39, (R)-N-(2,3,4,6,7,11b-hexahydro-1H-pyrazino[2,1-a]isoquinolin-9-yl)-3-isopropyl-1-methyl-1H-pyrazole-5-carboxamide], the Ki on rat TAAR1 came to 0.869 µM; on mouse TAAR1 it was 1.07 µM.
The corresponding values for `O=C(Nc1ccc(C(F)(F)F)cc1)Nc1ccc2c(c1)CCN1CCNC[C@@H]21` [Example 35, (R)-1-(2,3,4,6,7,11b-hexahydro-1H-pyrazino[2,1-a]isoquinolin-9-yl)-3-(4-(trifluoromethyl)phenyl)urea] are 0.0012 µM and 0.0025 µM.
The corresponding values for `FC(F)(F)c1cnc(Nc2ccc3c(c2)CCN2CCNC[C@@H]32)nc1` [Example 6, (11bR)-N-[5-(trifluoromethyl)pyrimidin-2-yl]-2,3,4,6,7,11b-hexahydro-1H-pyrazino[2,1-a]isoquinolin-9-amine] are 0.0195 µM and 0.0374 µM.
On the same counts, the results for `c1cc2c(cc1Nc1ncc(C3CC3)cn1)CCN1CCNC[C@@H]21` [Example 14, (11bR)-N-(5-cyclopropylpyrimidin-2-yl)-2,3,4,6,7,11b-hexahydro-1H-pyrazino[2,1-a]isoquinolin-9-amine] are 0.0192 µM and 0.0066 µM.
For the compound `COc1ccc(NC(=O)c2ccc3c(c2)CCN2CCNC[C@@H]32)cn1` [Example 45, (11bR)-N-(6-methoxy-3-pyridyl)-2,3,4,6,7,11b-hexahydro-1H-pyrazino[2,1-a]isoquinoline-9-carboxamide], the Ki at rat TAAR1 is over 1.5 µM; on mouse TAAR1 it was 0.299 µM.
On the same counts, the results for `O=C(Nc1cnc(Cl)nc1)c1ccc2c(c1)CCN1CCNC[C@@H]21` [Example 46, (11bR)-N-(2-chloropyrimidin-5-yl)-2,3,4,6,7,11b-hexahydro-1H-pyrazino[2,1-a]isoquinoline-9-carboxamide] are over 1.5 µM and 0.309 µM.
As to `O=C(Nc1ccc(Cl)nc1)c1ccc2c(c1)CCN1CCNC[C@@H]21` [Example 42, (11bR)-N-(6-chloro-3-pyridyl)-2,3,4,6,7,11b-hexahydro-1H-pyrazino[2,1-a]isoquinoline-9-carboxamide], the Ki at rat TAAR1 was 0.682 µM; on mouse TAAR1, 0.0395 µM.
As for `c1cc2c(cc1C1CC1)CCN1CCNC[C@@H]21` [Example 29, (11bR)-9-cyclopropyl-2,3,4,6,7,11b-hexahydro-1H-pyrazino[2,1-a]isoquinoline], the Ki on rat TAAR1 is 0.815 µM; on mouse TAAR1 it was 1.81 µM.
Regarding `c1ccc2c(c1)CCN1CCNC[C@@H]21` [Example 15, (11bR)-2,3,4,6,7,11b-hexahydro-1H-pyrazino[2,1-a]isoquinoline], the Ki is 0.248 µM at rat TAAR1 and 0.0605 µM at mouse TAAR1.
